The results in this text go back to the NIST ThermoML archive (doi:10.1021/je0504109).

± gives the expanded uncertainty stated by the source.

For series [1] the following is noted: 298.15 K; 101 kPa; Liquid.
Series [2] in a line: xn = mol fraction of the nth substance listed. The settings on record: 298.15 K, 101 kPa, Liquid.

Take `CCC(C)=O` [butanone]: in series [1], the mass density is recorded as 798.1 ± 0.6 kg/m3 and the viscosity was 0.373 ± 0.007 mPa·s.

For the compound `CCCCN` [1-butanamine], in series [1], the mass density amounted to 731.9 ± 0.6 kg/m3 and the viscosity was found to be 0.493 ± 0.009 mPa·s.

For the compound `CCCC(=O)O` [butanoic acid], in series [1], the mass density is on record as 952.8 ± 0.8 kg/m3 and the viscosity was 1.396 ± 0.023 mPa·s.

As to `CCCCOC(C)=O` [butyl ethanoate], in series [1], the mass density turned out to be 874.4 ± 0.7 kg/m3 and the viscosity is given as 0.668 ± 0.012 mPa·s.

As to `C1COCCO1` [1,4-dioxane], in series [1], the mass density was 1026.5 ± 0.8 kg/m3 and the viscosity is reported as 1.196 ± 0.02 mPa·s.

In the case of `CCCCOC(C)=O` [butyl ethanoate] + C1COCO1, in series [2] (x2 = 0), the mass density came to 874.4 ± 0.7 kg/m3 and the viscosity was 0.668 ± 0.012 mPa·s.

Take `C1COCCO1` [1,4-dioxane] + CCCCOC(C)=O: in series [2] (x1 = 1), the mass density came to 1026.5 ± 0.8 kg/m3 and the viscosity came out at 1.196 ± 0.02 mPa·s.

As for `C1COCO1` [1,3-dioxolane], in series [1], the mass density worked out at 1057.1 ± 0.9 kg/m3 and the viscosity turned out to be 0.531 ± 0.01 mPa·s.

A word on the mass density: it is the mass of a sample divided by its volume. For orientation: viscosity means the internal friction of a fluid under shear.
